Assay results as given in publication PMC4301955 (ChemMedChem, 2012).
Several values for one entry are separate records, joined by “and”; a condition that tells them apart may be missing. Equal values may be shown once.

Columns and labels:
ERα+ MCF-7 cells = conditions: for Agonist mode MCF-7 (% E2): ERα+ MCF-7 cells with ERE reporter, average efficacy (mean ± s.e.m.) as percentage of 10^−5 M 17β-estradiol
[1] = biological target: purified full-length human ERβ (Homo sapiens, UniProt Q92731); conditions: IC50 estradiol/IC50 compound ×100, estradiol = 100%; ± range or SD, n = 2–3; 10 nM [3H]estradiol, 18–24 h at 0 °C
Sequence of purified full-length human ERβ (Q92731 whole entry): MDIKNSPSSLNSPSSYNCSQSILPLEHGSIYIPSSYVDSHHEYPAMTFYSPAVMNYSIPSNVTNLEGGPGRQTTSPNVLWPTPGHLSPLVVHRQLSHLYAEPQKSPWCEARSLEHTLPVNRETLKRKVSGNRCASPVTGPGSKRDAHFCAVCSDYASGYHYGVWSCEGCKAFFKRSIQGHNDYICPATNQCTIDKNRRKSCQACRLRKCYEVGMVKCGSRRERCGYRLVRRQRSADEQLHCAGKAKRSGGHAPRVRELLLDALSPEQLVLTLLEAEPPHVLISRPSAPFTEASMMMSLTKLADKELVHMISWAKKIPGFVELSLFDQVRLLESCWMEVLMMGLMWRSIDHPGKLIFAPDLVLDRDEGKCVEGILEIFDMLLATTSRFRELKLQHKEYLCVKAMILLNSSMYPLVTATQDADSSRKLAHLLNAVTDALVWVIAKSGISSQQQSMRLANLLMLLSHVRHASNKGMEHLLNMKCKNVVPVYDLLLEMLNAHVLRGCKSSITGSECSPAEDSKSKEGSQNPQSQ

full-length human ERβ [2] = biological target: T1, full-length human ERβ (Homo sapiens, UniProt Q92731); type: cell-based
T1 sequence (Q92731 whole entry): as above

[3] = biological target: T2, purified full-length human ERα (Homo sapiens, UniProt P03372); conditions: for Relative binding affinity (RBA) ERα: IC50 estradiol/IC50 compound ×100, estradiol = 100%, ± range or SD, n = 2–3, 10 nM [3H]estradiol, 18–24 h at 0 °C
T2 sequence (P03372 1-595): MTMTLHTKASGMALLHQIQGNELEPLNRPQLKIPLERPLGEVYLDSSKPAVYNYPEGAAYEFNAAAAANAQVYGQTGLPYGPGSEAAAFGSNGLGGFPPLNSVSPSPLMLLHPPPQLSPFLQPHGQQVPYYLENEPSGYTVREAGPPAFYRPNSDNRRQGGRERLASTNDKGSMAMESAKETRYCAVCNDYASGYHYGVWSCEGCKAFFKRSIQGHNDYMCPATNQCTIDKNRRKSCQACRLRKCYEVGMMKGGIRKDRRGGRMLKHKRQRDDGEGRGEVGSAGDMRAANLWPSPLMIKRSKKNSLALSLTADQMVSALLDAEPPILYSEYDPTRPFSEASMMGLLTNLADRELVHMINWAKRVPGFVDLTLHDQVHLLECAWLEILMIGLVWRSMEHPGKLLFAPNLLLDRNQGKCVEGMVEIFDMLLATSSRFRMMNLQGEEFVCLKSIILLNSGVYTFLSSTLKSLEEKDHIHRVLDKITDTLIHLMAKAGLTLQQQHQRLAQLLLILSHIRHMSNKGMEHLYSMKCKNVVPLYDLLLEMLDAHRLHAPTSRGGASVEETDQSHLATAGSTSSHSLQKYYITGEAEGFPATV

full-length human ERα = biological target: T3, full-length human ERα (Homo sapiens, UniProt P03372); type: cell-based; conditions: for Agonist mode ERα (% E2): HepG2 cells, average efficacy (mean ± s.e.m.) as percentage of 10^−5 M 17β-estradiol
T3 sequence (P03372 1-595): T2 sequence (P03372 1-595)

full-length human ERβ [4] = biological target: T1, full-length human ERβ; type: cell-based; conditions: HepG2 cells; average efficacy (mean ± s.e.m.) as percentage of 10^−5 M 17β-estradiol

Row | Compound | Activity profile in MCF-7 cells (in words) (ERα+ MCF-7 cells; 3xERE-luciferase, ERα-positive MCF-7 cells) | Agonist mode MCF-7 (% E2) (ERα+ MCF-7 cells) | Relative binding affinity (RBA) ERβ [1] | IC50 (full-length human ERβ [2]) | Relative binding affinity (RBA) ERα [3] | EC50 (full-length human ERα) | Agonist mode ERα (% E2) (full-length human ERα) | Agonist mode ERβ (% E2) (full-length human ERβ [4]) | α/β ratio ([3]; ratio of the RBA for ERα to the RBA for ERβ) | Antagonist mode ERβ (% E2) (full-length human ERβ [2])
1 | O=S(=O)(Oc1ccccc1)[C@H]1C[C@H]2O[C@@H]1C(c1ccc(O)cc1)=C2c1ccc(O)cc1 [Compound 1] | limited agonist activity | 21 ± 4 % E2 | – | – | – | – | – | – | – | –
2 | O=S(=O)(Oc1ccccc1Cl)C1CC2OC1C(c1ccc(O)cc1)=C2c1ccc(O)cc1 (centres unmarked) [Compound 2b, 5,6-Bis-(4-hydroxyphenyl)-7-oxabicyclo[2.2.1]hept-5-ene-2-sulfonic Acid 2-Chlorophenyl Ester] | – | −7 ± 2 % E2 | 1.76% and 1.76 ±0.13% | > 10 µM | 19.0% and 19.00 ±4.6% | > 10 µM | 29 ± 5 % E2 | 1 ± 1 % E2 | – | –
3 | O=S(=O)(Oc1cccc2ccccc12)C1CC2OC1C(c1ccc(O)cc1)=C2c1ccc(O)cc1 (centres unmarked) [Compound 2m] | – | −4 ± 1 % E2 | 0.478 ±0.12% | – | 5.03 ±1.5% | – | 29 ± 1 % E2 | 1 ± 2 % E2 | 10.52 | –
4 | CC/C(=C(\c1ccc(O)cc1)c1ccc(OCCN(C)C)cc1)c1ccccc1 [Compound 4-OHT, 4-hydroxytamoxifen, reference compound] | – | −11 ± 1 % E2 | – | – | – | – | – | −1 ± 1 % E2 | – | −20 ± 2 % E2
5 | C[C@]12CC[C@@H]3c4ccc(O)cc4C[C@@H](CCCCCCCCC[S+]([O-])CCCC(F)(F)C(F)(F)F)[C@H]3[C@@H]1CC[C@@H]2O (some centres unmarked) [Faslodex, reference compound] | – | −4 ± 4 % E2 | – | – | – | – | 1 ± 1 % E2 | – | – | –
